Test results from ChEMBL document CHEMBL3045351, “A 4-(o-methoxyphenyl)-2-aminothiazole: an anti-quorum sensing compound” (2013).
In brackets after ≈: the same amount, converted by molar mass. Activity calls are given as the source filed them. The rule behind the calls is not given here.

Key:
[1] = tested on: Bacillus subtilis; assay: Induction of ROS production in Bacillus subtilis NCIM 2063 assessed as morphological changes at MIC50 concentration after 3 hr by scanning electron microscopic analysis; assay type: functional, organism-based
[2] = tested on: Bacillus subtilis; assay: Antibacterial activity against Bacillus subtilis NCIM 2063 incubated for 12 hr followed by subculturing measured after 24 hr by colony counting method; assay type: functional
[3] = tested on: Escherichia coli; assay: Antibacterial activity against Escherichia coli NCIM 2931 after 12 hr by resazurin reduction assay; assay type: functional; settings: NCIM 2931, 12 h
[4] = tested on: Escherichia coli; assay: Antibacterial activity against Escherichia coli NCIM 2931 incubated for 12 hr followed by subculturing measured after 24 hr by colony counting method; assay type: functional
[5] = tested on: Pseudomonas aeruginosa; assay: Antiquorum-sensing activity against Pseudomonas aeruginosa PAO1 cells assessed as scattered cells at 25 ug/ml after 18 hr by scanning electron microscopic analysis; assay type: functional, organism-based
[6] = tested on: Pseudomonas aeruginosa; assay: Antiquorum-sensing activity against Pseudomonas aeruginosa PAO1 cells assessed as decrease in biofilm formation at 25 to 100 ug/ml after 18 hr by crystal violet staining method; assay type: functional, organism-based
[7] = tested on: Pseudomonas aeruginosa; assay: Bactericidal activity against Pseudomonas aeruginosa PAO1 after 18 hr by crystal violet staining method; assay type: functional, organism-based
[8] = tested on: Bacillus subtilis; assay: Induction of ROS production in Bacillus subtilis NCIM 2063 at MIC50 concentration after 3 hr by DCFH-DA-based fluorimetric analysis; assay type: functional, organism-based
[9] = tested on: Bacillus subtilis; assay: Antibacterial activity against Bacillus subtilis NCIM 2063 after 12 hr by resazurin reduction assay; assay type: functional; settings: NCIM 2063, 12 h

- MIC [3]: 500 µg/mL (≈ 2420 µM)
- MIC [9]: 250 µg/mL (≈ 1210 µM)
Compound: COc1ccccc1-c1csc(N)n1
- Activity [1]: inactive
- MBC [2]: 250 µg/mL (≈ 1210 µM)
- MBC [4]: 500 µg/mL (≈ 2420 µM)
- Activity [5]: Active
- Activity [6]: Active
- Activity [7]: Active
- Activity [8]: inactive
